Patent US10662100B2, “Chlorination-UV process for decomposition and detoxification of microcystin-LR” (priority 2016, dated 2020)
Several values for one entry are separate records, joined by “and”; a condition that tells them apart may be missing. Equal entries are not always repeated. Where two headings read alike, the source gives them in different places. Starred links: 1 amine or outer side, 2 acyl side, 3 side chain; linkers in the order of their positions; H or OH if unused. Positions of bridges follow the written chain, without caps; N, C: chain ends. Non-standard residues stand in square brackets, D forms with d. Residues, ends and D or L forms follow the SMILES beside them. Adda = CO[C@@H](Cc1ccccc1)[C@@H](C)/C=C(C)/C=C/[C@H](N[*:1])[C@H](C)C(=O)[*:2]; dAsp(3S-Me) = C[C@H](C(=O)[*:3])[C@@H](N[*:1])C(=O)[*:2]; d(γGlu) = O=C(O)[C@@H](CCC(=O)[*:2])N[*:1]; NMeDha = C=C(NC)C(=O)O

Legend:
[1] = UV254 photolysis and chlorine/UV process for MC-LR decomposition; assay type: physicochemical
Procedure: (§1) Free chlorine and MC-LR solutions were freshly prepared before each experiment. The initial MC-LR concentration was 2.00×10^−6 mol/L (2.00 mg/L). The pH of MC-LR solutions before addition of chlorine was 7.78. Initial MC-LR decomposition experiments were conducted in unbuffered solutions in order to mitigate against participation of buffers and other inorganic ions in the reactions; pH measurements were not conducted after initiation of the reactions due to limited reaction volumes. In experiments that were designed to examine the effects of pH on MC-LR behavior, 10 mM phosphate buffer was added into MC-LR solution. The pH of solution was adjusted to 6.5, 7.5, and 8.5 by addition of 50 mM sulfuric acid or 100 mM sodium hydroxide.
(§2) […]. […] Pre-chlorinated samples were then collected in headspace-free, gas-tight containers for subsequent UV irradiation at a characteristic wavelength of 254 nm using a flat-plate collimated beam.
Incident UV254 irradiance was 1.00×10^−4 W/cm^2, as measured by a calibrated radiometer (IL1700, International Light Technologies, Peabody, Mass., U.S.). UV254 doses applied in the experiments ranged from 0 to 720 mJ/cm^2 for exposure times ranging from 0 to 120 min. The actual UV254 doses delivered to the samples would have been slightly lower than these values because of the effects of reflection and absorbance, which were not accounted for. The collimated beam system used in these experiments has been described previously. Water samples were collected periodically for determination of MC-LR concentration and cytotoxicity, as described below. All experiments were conducted in triplicate and the values were expressed as mean±standard deviation (SD) from the replicate measurements.
A high-performance liquid chromatography (HPLC) system (Surveyor, Thermo Scientific, FL, U.S.) equipped with an Acclaim PepMap100 C18 column (250 mm×1.0 mm I.D., 5 μm particle size) was used to measure MC-LR concentration (Merel et al., (2009) Chemosphere 74: 832-839). The HPLC mobile phase was CH3CN/H2O/TFA (60:40:0.1). […]

[2] = test system: NIH3T3 cells; assay type: cell-based, mouse
[3] = test system: Hep3B cells; assay type: cell-based, human
[4] = cited from earlier work
[5] = Chlorination of MC-LR, Total MC-LR by HPLC; assay type: physicochemical; conditions: pH 7.78
Procedure: as §1, §2
A high-performance liquid chromatography (HPLC) system (Surveyor, Thermo Scientific, FL, U.S.) equipped with an Acclaim PepMap100 C18 column (250 mm×1.0 mm I.D., 5 μm particle size) was used to measure MC-LR concentration (Merel et al., (2009) Chemosphere 74: 832-839). The HPLC mobile phase was CH3CN/H2O/TFA (60:40:0.1). Sample injection volumes were 20 μL with a flow rate of 1.0 mL/min. Detection was performed using a photodiode array at 238 nm. […]

[6] = 254 nm; cited from earlier work

Compound | MC-LR decomposition ([1]; pH 6.5) | photodecay constant (pseudo first-order) ([1]; pH 7.78) | MC-LR decomposition ([1]; pH 8.5) | decrease of cell viability [2] | change of cell viability resulting from UV254 exposure alone [3] | decrease of cell viability [3] | viability of Hep3B cells [3] | relative cell viability of Hep3B ([3]; pH 6.5) | relative cell viability of Hep3B ([3]; pH 8.5) | apparent second-order rate constant for chlorination of MC-LR ([4]; pH 6.1) | apparent second-order rate constant for chlorination of MC-LR ([4]; pH 7) | apparent second-order rate constant for chlorination of MC-LR ([4]; pH 8) | apparent second-order rate constant for chlorination of MC-LR [5] | concentration of MC-LR over time [5] | quantum yield Φ254 for photodegradation [6] | molar absorptivity ε254 [6]
C=C1C(=O)N[C@H](C)C(=O)N[C@@H](CC(C)C)C(=O)N[C@@H](C(=O)O)[C@H](C)C(=O)N[C@@H](CCCNC(=N)N)C(=O)N[C@@H](/C=C/C(C)=C/[C@H](C)[C@H](Cc2ccccc2)OC)[C@H](C)C(=O)N[C@@H](C(=O)O)CCC(=O)N1C [MC-LR] (R[Adda][d(γGlu)][NMeDha][dA]L[dAsp(3S-Me)]-OH; lactam N-7) | 64% | 0.000146 s⁻¹ and 0.000169 s⁻¹ and 0.000179 s⁻¹ and 0.000223 s⁻¹ | 83% | up to 76% | modest increase | up to 89% | roughly 50% | 60% | roughly 80% | 127.8 M⁻¹ s⁻¹ | 91.5 M⁻¹ s⁻¹ | 33.1 M⁻¹ s⁻¹ | 44.5 M⁻¹ s⁻¹ | remained essentially constant |  | 
CN1CC(=O)NC1=N [creatinine] |  |  |  |  |  |  |  |  |  |  |  |  |  |  | 0.011±0.002 mol/E | 
N-chloro-creatinine |  |  |  |  |  |  |  |  |  |  |  |  |  |  | 0.144±0.011 mol/E | 3911 M⁻¹ cm⁻¹
